Patent publication US20230218255A1, “IMAGING OF MYELOMA BONE LESIONS” (Blue Earth Diagnostics Limited, priority 2022, published 2023)

System: myeloma bone lesion
Experiment: [^18F]-FACBC PET and fused PET/CT imaging of the lumbar vertebrae
Format: in vivo
Conditions: coronal PET and PET/CT of lumbar vertebrae; PET acquisition started 5 minutes after administration of 319 MBq
Procedure: In an exemplary method, lesion [^18F]-FACBC uptake is visually compared to [^18F]-FACBC activity in the bone marrow. [^18F]-FACBC uptake higher than the bone marrow is considered as suspicious for myeloma. [^18F]-FACBC uptake similar or less than the bone marrow is considered as non-suspicious for myeloma.
FIG. 1: Coronal [^18F]-FACBC PET (left) and fused PET/CT (right) images of the lumbar vertebrae. […] The PET scan acquisition was started 5 minutes after administration of 319 MBq of [^18F]-FACBC.
In an aspect of the present disclosure, there is provided a method of diagnosing myeloma bone lesions in a subject comprising the steps of: • (a) administering a detectable amount of [^18F]-FACBC to the subject; • (b) acquiring one or more positron emission tomography (PET) scan images of the subject for a region of the subject that includes a potential myeloma bone lesion; and • (c) comparing [^18F]-FACBC uptake in the potential lesion against [^18F]-FACBC uptake in the bone marrow of the region of the subject; wherein lesion [^18F]-FACBC uptake which is higher than bone marrow [^18F]-FACBC uptake is indicative of the presence of myeloma bone lesions.

[^18F]-FACBC uptake in area diagnosed as a lesion compared with surrounding bone marrow: higher than the surrounding bone marrow
Structure (SMILES): N[C@]1(C(=O)O)C[C@@H](F)C1 [[^18F]-FACBC, anti-1-amino-3-^18F-fluorocyclobutane-1-carboxylic acid]
